In the assay the test system is gray mold fungus (Botrytis cinerea). The experiment in a line: Cucumber leaf disk preventive test against gray mold fungus (Test Examples 1 and 2, Reference Examples). The format is in vivo. To be noted: 15° C., four days. The protocol: To a SUS beaker are added 30 parts of the present compound (racemate), 5 parts of Soprophor FLK (polyoxyethylene tristyrylphenyl ether phosphate, produced by Rhodia Nicca Ltd.), 65 parts of ion-exchange water and 150 parts of glass beads (1.0 mm diameter). The mixture is subjected to grinding at a velocity of 1000 rpm with cooling to 10° C., and thereafter the glass beads are separated, so as to obtain a flowable formulation comprising the present compound (racemate).
True leaf of cucumber is punched out with cork borer to 13 mm in diameter to prepare a leaf disk. In 24 well microwell plate that is dispensed with 1 ml 0.8% water agar, the leaf disk is placed such that the upper side of the leaf is in an upward direction. Thereto is added 20 micro liter a testing solution prepared by mixing the flowable formulation of the present compound (racemate) prepared by the above procedure and a commercial liquid formulation of validamycin or a commercial wettable powders of polyoxins to a predetermined concentration to treat the leaf disk.
After confirming that the testing medical solution is dried, conidium of gray mold fungus (Botrytis cinerea) is suspended into potato dextrose broth (DIFCO) in a density of about 10^5 conidium/mL and is then subjected to a spray inoculation. After leaving to stand the leaf disk in a growth chamber set up at 15° C. for four days, an onset area on the leaf is measured and then calculated an onset area rate (hereinafter, referred to as an onset area rate of treated group).
The same operation is carried out with 20 micro liter water instead of 20 micro liter a testing medicine solution to calculate an onset area rate (hereinafter, referred to an onset area rate of non-treated group).
A preventive value is calculated from the above onset area rate of treated group and the onset area rate of non-treated group by the following equation: Preventive value (%)=100×(A−B)/A
A: an onset area rate of treated group
B: an onset area rate of non-treated group
The same operations as described in Test Example 1 are carried out with kasugamycin or streptomycin instead of validamycin or polyoxins, so as to calculate respective preventive values.
Also for comparison, the same operations as described in Test Example 1 are carried out with the exception that the testing medicine solution is substituted with a predetermined concentration of either a flowable formulation of the present amide compound or a commercial wettable powder of kasugamycin or streptomycin, so as to calculate respective preventive values.
For comparison, the same operations as described in Test Example 1 are carried out with the exception that the testing medicine solution is substituted with a predetermined concentration of a solution of a wettable powder of validamycin or polyoxins, so as to calculate a preventive value.

Where [1] appears, read: antibiotic compound alone 0.5 ppm.
Where [2] appears, read: antibiotic compound alone 5.0 ppm.

We go through four compounds from patent publication US10051860B2, “Plant disease controlling composition and method for controlling plant disease” (SUMITOMO CHEMICAL COMPANY, LIMITED, priority 2010, dated 2018).

As to `C[C@H]1O[C@H](O[C@H]2[C@H](O)[C@@H](O)[C@@H](O)[C@H](O)[C@@H]2O)[C@@H](N)C[C@@H]1NC(=N)C(=O)O` [kasugamycin], the “preventive value (%)” value under setting [1] is 0% and the “preventive value (%)” value under setting [2] is reported as 10%.
As for `[H]/N=C(/N)N[C@H]1[C@H](O)[C@@H](O)[C@H](O[C@@H]2O[C@@H](C)[C@](O)(C=O)[C@H]2O[C@@H]2O[C@@H](CO)[C@H](O)[C@@H](O)[C@@H]2NC)[C@@H](N/C(N)=N\[H])[C@@H]1O` [streptomycin], the “preventive value (%)” value amounted to 0% under setting [1] and 10% under setting [2].
For `OCC1=C[C@H](N[C@H]2C[C@H](CO)[C@@H](O[C@@H]3O[C@H](CO)[C@@H](O)[C@H](O)[C@H]3O)[C@H](O)[C@H]2O)[C@H](O)[C@@H](O)[C@@H]1O` [validamycin], the “preventive value (%)” value is, setting by setting: under setting [1], 5%; under setting [2], 10%.
For polyoxins the same measures were 11% and 15%.
